What was measured:
IFN-γ = experiment: Serum IFN-γ ELISA after peptide immunization; assay type: in vivo, HLA-A2.1/K^b transgenic mice; details: serum day 11, n = 5
HLA-A*0201 on T2A2 cells = target: T1, HLA-A*0201 on T2A2 cells (Homo sapiens, UniProt P04439, D140Y/D185E/D98H/E176V/E277Q/G131W/G231S/I119V/I121R/I166T/I218V/L300P/L318F/N151K/N90K/P208A/P217A/Q86G/Q94H/R138H/R169H/T345S); experiment: T2A2 cell binding affinity assay; details: 50 μg/mL peptide + 3 μg/mL β2-M; for FI (fluorescence index): FI = [MFI of the peptide − MFI of the background]/[MFI of the background], T2A2 cells, 18 h; for MFI: T2A2 cells 1 × 10^6 cells/mL, 37°C 18 h, HLA-A2 antibody BB7.2, flow cytometry, background MFI 131
T1 construct: T2A2 cells (1 × 10^6 cells/mL) resuspended in serum-free IMDM medium were seeded in 24-well plates; endogenous in cells; host or cells: T2A2 cells

[1] = test system: peptide-induced CTLs from HLA-A*02+PPD+ donors; experiment: IFN-γ ELISPOT of peptide-induced CTLs in vitro; assay type: cell-based, human; details: CTLs induced with peptide-loaded DCs from HLA-A*02+PPD+ donors, day 21; stimulators peptide-loaded T2A2 cells, 18 h
[2] = test system: peptide-pulsed T2A2 cells; experiment: LDH cytotoxicity assay of peptide-induced CTLs in vitro; assay type: cell-based, human; details: E : T ratio 50 : 1, CTLs from HLA-A*02+PPD+ donors, T2A2 cells pulsed with corresponding peptide, 4 h, n = 4
[3] = test system: CD8+ T cells of splenic lymphocytes; experiment: ICS assay of restimulated splenic lymphocytes from immunized mice; assay type: in vivo, HLA-A2.1/K^b transgenic mice; details: ICS on day 7 of restimulation, n = 5
[4] = test system: peptide-loaded T2A2 cells; experiment: LDH lysis assay with CTLs from immunized mice; assay type: in vivo, HLA-A2.1/K^b transgenic mice; details: peptide-loaded T2A2 target cells, n = 5
[5] = target: T2, peptide/HLA-A*0201 complex on T2A2 cells (Homo sapiens, UniProt P04439, D140Y/D185E/D98H/E176V/E277Q/G131W/G231S/I119V/I121R/I166T/I218V/L300P/L318F/N151K/N90K/P208A/P217A/Q86G/Q94H/R138H/R169H/T345S); experiment: Peptide/HLA-A*0201 complex stability assay; assay type: binding; details: time for loss of 50% of peptide/HLA-A*0201 complexes stabilized at 0 h, 50 μg/mL peptide, 18 h, brefeldin A 10 μg/mL 1 h, then 0, 2, 4, 6 h at 37°C, flow cytometry
T2 construct: endogenous in cells; host or cells: T2A2 cells
Experimental: The peptide/MHC complex stabilization assays were performed similarly. T2A2 cells were incubated with 50 μg/mL peptides and 3 μg/mL β2-M for 18 h. Then, 10 μg/mL brefeldin A (203729, Sigma, USA) were added in medium for another 1 h, subsequently washed by serum-free IMDM medium and incubated at 37°C for 0, 2, 4, and 6 h. Finally, cells were washed twice, stained with HLA-A2-PE-Cyanine 7 monoclonal antibody, and analyzed by flow cytometer (FACS Calibur, BD Bioscience, USA). DC50 was defined as an estimate of the time required for the loss of 50% of the peptide/HLA-A^∗0201 complexes stabilized at time 0 h.

[6] = test system: peptide-induced CD8+ T cells from HLA-A*02+ PPD+ / PPD− donors; experiment: Intracellular cytokine IFN-γ staining (ICS) of peptide-induced CTLs in vitro; assay type: cell-based, human; details: for CD8+ IFN-γ+ T cells, PPD+ donors compared with PBS-treated group: n = 3 donors; for CD8+ IFN-γ+ T cells, PPD+ donors compared with PPD− donors: n = 3 donors each, Student's t-test
[7] = CFA day -14 then peptide in IFA

Sequence | FI (fluorescence index) (HLA-A*0201 on T2A2 cells) | MFI (HLA-A*0201 on T2A2 cells) | DC50 [5] [h] | also measured
ALDGLDLTV [Rv1218c-p24] | 3.32 | 569 | >4 | serum IFN-γ concentration (ELISA), CFA preimmunization (IFN-γ; CFA 200 μL s.c. day -14, then peptide 100 μg/mice + T helper epitope 140 μg/mice in IFA days 0, 5, 10): 1817.0 pg/mL; serum IFN-γ concentration (ELISA), IFA (IFN-γ; peptide 100 μg/mice + T helper epitope 140 μg/mice in IFA 1 : 1, s.c. base of tail, days 0, 5, 10): 363 pg/mL; IFN-γ secretion of peptide-induced CTLs (ELISPOT) [1]: secreted IFN-γ most potently; lysis rate [2]: 88.6%; CD8+ IFN-γ+ T cells compared with NS group, CFA preimmunization [3, 7]: produced more CD8^+ IFN-γ^+ T cells than the NS group; CD8+ IFN-γ+ T cells compared with NS group, IFA ([3]; IFA immunization): induced more CD8^+IFN-γ^+ T cells than the NS group; lysis rate, CFA preimmunization, E : T 40 : 1 [4, 7]: 24.6%; lysis rate, CFA preimmunization, E : T 80 : 1 [4, 7]: 41.2%; lysis rate, IFA, E : T 80 : 1 ([4]; IFA immunization): 26.4%; CD8+ IFN-γ+ T cells, PPD+ donors compared with PBS-treated group [6]: more CD8^+ IFN-γ^+ T cells than the PBS-treated group; CD8+ IFN-γ+ T cells, PPD+ donors compared with PPD− donors [6]: significantly more CD8^+ IFN-γ^+ T cells
LMMPQTVTV [Rv2994-p223, predicted HLA-A2-restricted 9-mer peptide … from MTB efflux pump antigen Rv2994] | 2.28 | 430 | <2 | –
ILIGETIKI [COX-2-p321, reference compound] | 2.11 | 408 | >4 | –
VLAADAVFV [Rv2459c-p469, predicted HLA-A2-restricted 9-mer peptide … from MTB efflux pump antigen Rv2459c] | 2.36 | 440 | >4 | IFN-γ secretion of peptide-induced CTLs (ELISPOT) [1]: secreted IFN-γ most potently; CD8+ IFN-γ+ T cells, PPD+ donors compared with PBS-treated group [6]: more CD8^+ IFN-γ^+ T cells than the PBS-treated group; CD8+ IFN-γ+ T cells, PPD+ donors compared with PPD− donors [6]: significantly more CD8^+ IFN-γ^+ T cells
RLGNVVVEV [Rv2477c-p316, predicted HLA-A2-restricted 9-mer peptide … from MTB efflux pump antigen Rv2477c] | 1.58 | 348 | >2 | –
WMSIGVFSV [Rv1819c-p122, predicted HLA-A2-restricted 9-mer peptide … from MTB efflux pump antigen Rv1819c] | 0.35 | 177 | – | –
LLDEPSSGL [Rv1218c-p158, predicted HLA-A2-restricted 9-mer peptide … from MTB efflux pump antigen Rv1218c] | 2.35 | 439 | >4 | IFN-γ secretion of peptide-induced CTLs (ELISPOT) [1]: secreted IFN-γ most potently; CD8+ IFN-γ+ T cells, PPD+ donors compared with PPD− donors [6]: significantly more CD8^+ IFN-γ^+ T cells
SLVSQPPTL [Rv1218c-p280, predicted HLA-A2-restricted 9-mer peptide … from MTB efflux pump antigen Rv1218c] | 1.62 | 353 | <2 | –
RLTEELAWV [Rv2477c-p265, predicted HLA-A2-restricted 9-mer peptide … from MTB efflux pump antigen Rv2477c] | 1.36 | 315 | – | –
LLDEPTSAL [Rv0933-p186, predicted HLA-A2-restricted 9-mer peptide … from MTB efflux pump antigen Rv0933] | 2.52 | 465 | <2 | –
YLLGGTVVV [Rv1877-p71, predicted HLA-A2-restricted 9-mer peptide … from MTB efflux pump antigen Rv1877] | 2.17 | 419 | >2 | –
SLADRLTVI [Rv0933-p208, predicted HLA-A2-restricted 9-mer peptide … from MTB efflux pump antigen Rv0933] | 2.59 | 479 | <2 | –
ALCEKVTII [Rv1218c-p200, predicted HLA-A2-restricted 9-mer peptide … from MTB efflux pump antigen Rv1218c] | 1.75 | 366 | > 4 | DC50 ([5]; listed as Rv1218c-P200): >4 h
VLATGVTLV [Rv2209-p158, predicted HLA-A2-restricted 9-mer peptide … from MTB efflux pump antigen Rv2209] | 2.54 | 462 | >4 | –
GLDPLMENV [Rv1218c-p165, predicted HLA-A2-restricted 9-mer peptide … from MTB efflux pump antigen Rv1218c] | 2.6 | 479 | > 2 | –
TLFKTIVGL [Rv2477c-p362, predicted HLA-A2-restricted 9-mer peptide … from MTB efflux pump antigen Rv2477c] | 1.72 | 367 | > 2 | –
LLLSKPDLL [Rv2477c-p173, predicted HLA-A2-restricted 9-mer peptide … from MTB efflux pump antigen Rv2477c] | 1.15 | 272 | – | –
